Laboratory results reported in US12011443B2, “Pharmaceutical composition for preventing or treating nonalcoholic steatohepatitis” (J2H BIOTECH INC., priority 2018, dated 2024).

How the values were obtained:
[1] = system: non-alcoholic steatohepatitis C57BL/6 mouse model induced by the methionine and choline deficient (MCD) diet; assay: Non-alcoholic steatohepatitis treatment model (MCD diet), 6 weeks repeated oral administration; type: in vivo, C57BL/6 mice; conditions: for LDL level (blood biochemical test) / oil red O staining area level: p<0.01
Source text: The MCD model, which is an animal model of steatohepatitis, was used. C57BL/6 mice were supplied with a MCD (methionine-choline deficient) diet for 5 days, followed by a normal diet for 2 days. In this way, for 10 weeks, the MCD diet and normal diet were alternately supplied. Animals were identified using tail marks during the acclimatization period (blue), dosing and observation period (red). Individual identification cards, distinguished by color, were attached to the breeding box, and an animal room usage record was attached to the entrance of the breeding room.
During the acclimatization period, blood biochemical tests and body weight measurements were performed. Mice were randomly distributed so that the average of each group was distributed as uniformly as possible according to the ranked ALT and body weight levels. [10 animals in the normal feed group (G1), 40 animals in the MCD diet group (G2-G5)]
The improvement effect that appeared when the test compound was repeatedly administered for 6 weeks to the non-alcoholic steatohepatitis C57BL/6 mouse model induced over 10 weeks with the MCD diet was evaluated. Test compound was administered once a day for 6 weeks. As a positive control, obeticholic acid (hereinafter referred to as OCA), which is currently undergoing a phase 3 clinical trial with non-alcoholic steatohepatitis as an indication, was used.
In the case of a control compound (obeticholic acid, 10 mg/kg/day), an appropriate amount was weighed and then diluted in sterile distilled water and administered. In the case of the test compound, after weighing the appropriate amount, it was diluted with 0.5 wt % methyl cellulose aqueous solution to which 1 wt % Tween 80 was added. During oral administration, the weight of the mouse was measured, and the animals were fixed using the cervical skin fixation method, and each test compound was administered using a sonde for oral administration.
It was measured at the start of administration, and once a week and on the day of autopsy after the start of administration.
It was measured right before the start of administration, and once a week after the start of administration of the test compound. As for the measurement method, the remaining amount of feed was measured per unit of breeding box next day after quantitative feeding, the difference was calculated, and the average intake per mouse was calculated.
The following items were tested using a blood biochemical analyzer (7180 Hitachi, Japan) with blood collected and separated at right before and the 6th week (the day of autopsy) after administration of the test compound.
Six weeks after administration of the test compound: ALT (alanine transaminase), AST (aspartate transaminase), TG (triglyceride), TCHO (total cholesterol), HDL (high-density lipoprotein), LDL (low-density lipoprotein), GGT (Gamma-glutamyltransferase), LDH (Lactate dehydrogenase)
On the day of autopsy, pimonidazole was diluted in saline at a concentration of 30 mg/ml, and then administered intravenously at a dose of 60 mg/kg. Animals were euthanized 90 minutes after administration. At each autopsy, the animals were inhaled with ether, and when anesthesia was confirmed, blood was collected from the posterior vena cava using a syringe. Thereafter, the abdominal aorta and posterior vena cava were cut, bleeding, and killed. Blood was injected into a vacutainer tube containing a clot activator, allowed to stand at room temperature for about 15 minutes to coagulate, and then centrifuged at 3,000 rpm for 10 minutes to separate the serum. Serum was stored in a deep freezer set at −70° C. or lower before analysis, and was used for blood biochemical tests.
At autopsy, the liver was excised and weighed, the right lobe of the liver was fixed in 10% neutral buffered formalin solution, and the left lobe was divided into half and rapidly frozen using liquid nitrogen. The quick-frozen specimens were stored in a cryogenic freezer set at −70° C. or lower until ELISA analysis. […]

[2] = Tissue concentration after oral administration to the mouse; type: in vivo; conditions: 2 hours after oral administration
[3] = single administration and combined administration with metformin; cited from earlier work
[4] = system: non-alcoholic steatohepatitis prevention model, MCD feed, mice (C57BL/6); assay: Non-alcoholic steatohepatitis prevention model (MCD feed with simultaneous administration for 12 weeks); type: in vivo; conditions: 12 weeks with MCD feed, vs vehicle control group (G2)
Protocol: The efficacy of the test compound for preventing non-alcoholic steatohepatitis was evaluated. Using 7-week-old mice (C57BL/6), the normal group (G1) was supplied with general feed, and the vehicle control group (G2), positive control group (G3), and test groups (G4, G5) were supplied with the MCD feed for 12 weeks. Simultaneously with the MCD diet, test compounds and controls were administered orally once a day. Mice were divided into five groups, and a total of 75 mice, 15 mice per each group, were used for the experiment.
In order to evaluate the prophylactic efficacy, the test compound was administered for 12 weeks at the same time as induction with the MCD diet, and the efficacy of the test compound for the prevention of steatohepatitis was evaluated.
Each appropriate amount of the control compound (Obeticholic acid, 10 mg/kg/day) and the test compound was weighed, and then diluted in 0.5 wt % methyl cellulose aqueous solution to which 1 wt % Tween 80 was added. During oral administration, the weight of the mouse was measured, and the animals were fixed using the cervical skin fixation method, and each test substance was administered using a sonde for oral administration. […]

[5] = clinical trials; cited from earlier work
[6] = 10 mg/kg/day (G4), vs vehicle control group (G2)
[7] = 30 mg/kg/day (G5), vs vehicle control group (G2)

Structure (SMILES): C[C@@H]1CN(c2ccc(S(C)(=O)=O)cc2F)CCN1c1nccc(C(=O)N[C@H]2C3CC4CC2C[C@](O)(C4)C3)n1 [Chemical Formula 1, 2-((R)-4-(2-fluoro-4-(methylsulfonyl)phenyl)-2-methylpiperazin-1-yl)-N-((1R,2s,3S,5S,7S)-5-hydroxyadamantan-2-yl)pyrimidine-4-carboxamide]
- ALT level (blood biochemical test) ([1]; 10 mg/kg/day (G3, G4) oral once a day, vs vehicle control group (G2), p<0.05): significantly lower
- Hydroxyproline expression area level ([1]; 10 mg/kg/day (G3, G4), vs normal control group (G1), p<0.001 or p<0.05): significantly higher
- Hydroxyproline expression area level ([1]; 10 mg/kg/day (G3, G4), vs vehicle control group (G2), p<0.001 or p<0.01): significantly lower
- TCHO level in liver tissue (ELISA) [1, 6]: significantly lower
- TG level in liver tissue (ELISA) [1, 6]: significantly lower
- LDL level (blood biochemical test) ([1]; 10 mg/kg/day (G4), vs vehicle control group (G2) and positive control group (G3)): significantly lower
- oil red O staining area level ([1]; 10 mg/kg/day (G4), vs vehicle control group): significantly lower
- ALT level (blood biochemical test) ([1]; 30 mg/kg/day (G5) oral once a day, vs vehicle control group (G2), p<0.001 or p<0.05): significantly lower
- TCHO level in liver tissue (ELISA) [1, 7]: significantly lower
- TG level in liver tissue (ELISA) [1, 7]: significantly lower
- LDL level (blood biochemical test) ([1]; 30 mg/kg/day (G5), vs vehicle control group (G2) and positive control group (G3)): significantly lower
- relative liver weight level ([1]; 30 mg/kg/day (G5), vs vehicle control group (G2) and positive control group (G3), p<0.01 or p<0.05): significantly lower
- Hydroxyproline expression area level ([1]; 30 mg/kg/day (G5), vs vehicle control group (G2), p<0.001 or p<0.01): significantly lower
- AST level (blood biochemical test) ([1]; 30 mg/kg/day (G5), vs vehicle control group (G2), p<0.001 or p<0.05): significantly lower
- liver weight level (absolute) ([1]; 30 mg/kg/day (G5), vs vehicle control group (G2), p<0.05): significantly lower
- oil red O staining area level ([1]; 30 mg/kg/day (G5), vs vehicle control group): significantly lower
- microvesicular steatosis level (histopathology) ([1]; 30 mg/kg/day (G5), vs vehicle control group, p<0.05): significantly lower
- effect of alleviating non-alcoholic steatohepatitis ([1]; 30 mg/kg/day, compared to positive control compound): superior
- blood biochemistry, liver relative weight, TG and TCHO content in liver tissue, and microvesicular steatosis level ([1]; high dose administration group, vs positive control group): lower than those of the positive control group
- LDH (FIG. 2) ([1]; high-dose administration group, compared to normal group): concentration similar to that of the normal group
- levels of inflammation (histopathology) ([1]; test compound administration group, vs vehicle control group): lower levels of inflammation
- LDH (FIG. 2) ([1]; test compound groups, compared to the positive control group): tends to decrease LDH
- concentration of the liver tissue compared with plasma concentration [2]: higher than the plasma concentration
- efficacy as therapeutic agent for type 2 diabetes [3]: did not show sufficient efficacy
- triglycerides in liver tissue ([4]; 10 mg/kg/day (G3, G4) oral once a day): statistically significant decrease
- triglycerides in liver tissue ([4]; 30 mg/kg/day (G5) oral once a day): statistically significant decrease

Structure (SMILES): CC[C@H]1[C@@H](O)[C@@H]2[C@H](CC[C@]3(C)[C@@H]([C@H](C)CCC(=O)O)CC[C@@H]23)[C@@]2(C)CC[C@@H](O)C[C@@H]12 [OCA, obeticholic acid]
- subjects showing stomach pain and fatigue [5]: more than 10%
- subjects with side effects like irregular heartbeat, dry skin, constipation, joint pain, peripheral edema, sore throat, thyroid hormone irregularity, rash [5]: about 10%
